≈ marks a conversion by molar mass, not a printed value. Calls of active or inactive are those of the source. The rule behind the calls is not given here.
Key:
[1] = Metabolic stability in human liver microsomes assessed as clearance by LC/MS-MS analysis; assay type: ADME, Microsome
[2] = Metabolic stability in rat liver microsomes assessed as clearance by LC/MS-MS analysis; assay type: ADME, Microsome
[3] = Antagonist activity at rat TRPA1 expressed in CHO cells assessed as cinnamaldehyde-induced calcium flux measured after 90 mins by FLIPR assay; assay type: cell-based; conditions: 1.5 h
[4] = Antagonist activity at human TRPA1 expressed in CHO cells assessed as cinnamaldehyde-induced calcium flux measured after 90 mins by FLIPR assay; assay type: cell-based; conditions: 1.5 h
[5] = Lipophilicity, logD of compound; assay type: physicochemical; conditions: octanol/water
[6] = Protein binding in human plasma; assay type: ADME, cell-free; conditions: read-out: PPB (converted)
[7] = Protein binding in rat plasma; assay type: ADME, cell-free; conditions: read-out: PPB (converted)
[8] = Half life in rat at 1 mg/kg; assay type: ADME, organism-based; conditions: in vivo
Rattus norvegicus = species on record: Rattus norvegicus; assay: Antinociceptive activity against AITC-induced rat pain model assessed as nocifensive behaviour by measuring unbound concentration; assay type: functional, organism-based
[9] = Unbound Volume of distribution at steady state in rat at 1 mg/kg; assay type: ADME, organism-based; conditions: in vivo
[10] = Volume of distribution at steady stare in rat at 1 mg/kg; assay type: ADME, organism-based; conditions: in vivo, read-out: Vdss
[11] = Clearance in rat at 1 mg/kg; assay type: ADME, organism-based; conditions: in vivo
[12] = Apparent permeability across apical to basolateral side in MDCK cells; assay type: ADME, cell-based, Canis lupus familiaris; conditions: dog, read-out: permeability
[13] = Kinetic solubility of the compound; assay type: physicochemical; conditions: read-out: Kinetic_solubility
[14] = Oral bioavailability in rat at 1 mg/kg; assay type: ADME, organism-based; conditions: in vivo
[15] = Metabolic stability in rat hepatocytes assessed as clearance; assay type: ADME, cell-based, Hepatocyte
[16] = molecular target: Transient receptor potential cation channel subfamily A member 1 (Rattus norvegicus) (UniProt Q6RI86); assay: In vivo antagonist activity at TRPA1 in AITC-induced rat pain model assessed as nocifensive behaviour at 2.18 ratio of free plasma concentration to IC50 for rat […]; assay type: functional, organism-based; conditions: concentration not given here
Sequence of Transient receptor potential cation channel subfamily A member 1 (Rattus norvegicus) (Q6RI86 whole entry): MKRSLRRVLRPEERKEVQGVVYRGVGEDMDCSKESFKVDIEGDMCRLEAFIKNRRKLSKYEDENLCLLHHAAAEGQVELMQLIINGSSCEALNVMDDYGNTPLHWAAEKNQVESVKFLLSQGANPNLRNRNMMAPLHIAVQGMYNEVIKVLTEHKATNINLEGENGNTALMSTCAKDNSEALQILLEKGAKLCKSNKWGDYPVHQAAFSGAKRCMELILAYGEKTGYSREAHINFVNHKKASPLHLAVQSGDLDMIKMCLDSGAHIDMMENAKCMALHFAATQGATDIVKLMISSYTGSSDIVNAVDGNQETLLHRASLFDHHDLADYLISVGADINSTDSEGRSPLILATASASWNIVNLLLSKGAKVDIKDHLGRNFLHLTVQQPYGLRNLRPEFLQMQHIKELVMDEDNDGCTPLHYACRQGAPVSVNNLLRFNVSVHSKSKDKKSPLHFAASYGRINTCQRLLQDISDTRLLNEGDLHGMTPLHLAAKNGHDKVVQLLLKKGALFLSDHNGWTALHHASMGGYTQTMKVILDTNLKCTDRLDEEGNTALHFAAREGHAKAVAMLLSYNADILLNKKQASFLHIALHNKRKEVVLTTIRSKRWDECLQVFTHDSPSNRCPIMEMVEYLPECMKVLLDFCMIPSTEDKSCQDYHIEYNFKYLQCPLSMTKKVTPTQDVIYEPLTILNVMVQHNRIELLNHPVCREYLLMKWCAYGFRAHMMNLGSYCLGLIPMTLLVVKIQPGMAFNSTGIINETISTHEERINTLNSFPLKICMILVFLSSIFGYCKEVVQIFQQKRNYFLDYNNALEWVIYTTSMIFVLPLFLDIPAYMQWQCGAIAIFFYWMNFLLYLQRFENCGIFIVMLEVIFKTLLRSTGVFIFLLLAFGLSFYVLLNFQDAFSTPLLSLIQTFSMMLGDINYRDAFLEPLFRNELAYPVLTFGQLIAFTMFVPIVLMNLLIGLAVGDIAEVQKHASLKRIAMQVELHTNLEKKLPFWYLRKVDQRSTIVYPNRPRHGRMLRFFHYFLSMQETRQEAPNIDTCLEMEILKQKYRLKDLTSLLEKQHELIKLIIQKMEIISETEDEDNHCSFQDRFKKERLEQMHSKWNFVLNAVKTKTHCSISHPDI

[17] = molecular target: Transient receptor potential cation channel subfamily A member 1 (Rattus norvegicus) (UniProt Q6RI86); assay: In vivo antagonist activity at TRPA1 in AITC-induced rat pain model assessed as nocifensive behaviour at 7.95 ratio of free plasma concentration to IC50 for rat […]; assay type: functional, organism-based; conditions: concentration not given here
[18] = molecular target: Transient receptor potential cation channel subfamily A member 1 (Rattus norvegicus) (UniProt Q6RI86); assay: In vivo antagonist activity at TRPA1 in AITC-induced rat pain model assessed as nocifensive behaviour at 24.47 ratio of free plasma concentration to IC50 for rat […]; assay type: functional, organism-based; conditions: concentration not given here
[19] = molecular target: Transient receptor potential cation channel subfamily A member 1 (Rattus norvegicus) (UniProt Q6RI86); assay: In vivo antagonist activity at TRPA1 in AITC-induced rat pain model assessed as nocifensive behaviour at 93.41 ratio of free plasma concentration to IC50 for rat […]; assay type: functional, organism-based; conditions: concentration not given here
[20] = molecular target: Transient receptor potential cation channel subfamily M member 8 (Homo sapiens) (UniProt Q7Z2W7); assay: Inhibition of human TRPM8 expressed in HEK293F cells assessed as inhibition of […]-induced calcium response up to 20 uM; assay type: cell-based
[21] = molecular target: T1, Short transient receptor potential channel 6 (Homo sapiens) (UniProt Q9Y210); assay: Inhibition of human TRPC6 expressed in HEK293F cells assessed as inhibition of carbachol-induced calcium response up to 20 uM; assay type: cell-based
T1 sequence (whole entry): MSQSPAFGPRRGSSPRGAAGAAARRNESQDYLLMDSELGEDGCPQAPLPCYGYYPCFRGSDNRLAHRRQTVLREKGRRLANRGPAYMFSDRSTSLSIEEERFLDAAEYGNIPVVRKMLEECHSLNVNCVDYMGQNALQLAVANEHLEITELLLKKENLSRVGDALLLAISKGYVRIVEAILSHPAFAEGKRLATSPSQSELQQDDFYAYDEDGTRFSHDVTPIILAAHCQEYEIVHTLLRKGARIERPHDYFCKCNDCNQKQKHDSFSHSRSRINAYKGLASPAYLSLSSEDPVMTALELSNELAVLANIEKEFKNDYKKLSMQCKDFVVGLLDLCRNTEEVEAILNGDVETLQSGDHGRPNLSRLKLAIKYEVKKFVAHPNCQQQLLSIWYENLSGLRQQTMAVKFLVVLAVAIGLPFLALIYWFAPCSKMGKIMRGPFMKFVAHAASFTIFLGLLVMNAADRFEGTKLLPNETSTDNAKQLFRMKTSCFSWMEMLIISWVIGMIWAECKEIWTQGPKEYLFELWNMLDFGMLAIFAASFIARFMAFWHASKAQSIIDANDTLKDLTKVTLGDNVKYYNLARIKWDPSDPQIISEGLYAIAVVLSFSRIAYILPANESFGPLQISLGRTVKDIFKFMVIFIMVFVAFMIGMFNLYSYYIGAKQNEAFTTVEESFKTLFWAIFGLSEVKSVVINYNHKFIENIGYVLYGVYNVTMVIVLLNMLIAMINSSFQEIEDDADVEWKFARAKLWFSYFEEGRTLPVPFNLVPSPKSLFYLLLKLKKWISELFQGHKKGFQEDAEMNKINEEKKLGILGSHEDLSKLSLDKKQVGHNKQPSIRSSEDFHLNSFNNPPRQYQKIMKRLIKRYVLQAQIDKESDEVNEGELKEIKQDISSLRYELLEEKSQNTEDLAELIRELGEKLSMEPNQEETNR

hERG (KCNH2) = hERG (KCNH2) (Homo sapiens, UniProt Q12809); assay: Inhibition of human ERG at 10 uM
Sequence of hERG (KCNH2) (Q12809 whole entry): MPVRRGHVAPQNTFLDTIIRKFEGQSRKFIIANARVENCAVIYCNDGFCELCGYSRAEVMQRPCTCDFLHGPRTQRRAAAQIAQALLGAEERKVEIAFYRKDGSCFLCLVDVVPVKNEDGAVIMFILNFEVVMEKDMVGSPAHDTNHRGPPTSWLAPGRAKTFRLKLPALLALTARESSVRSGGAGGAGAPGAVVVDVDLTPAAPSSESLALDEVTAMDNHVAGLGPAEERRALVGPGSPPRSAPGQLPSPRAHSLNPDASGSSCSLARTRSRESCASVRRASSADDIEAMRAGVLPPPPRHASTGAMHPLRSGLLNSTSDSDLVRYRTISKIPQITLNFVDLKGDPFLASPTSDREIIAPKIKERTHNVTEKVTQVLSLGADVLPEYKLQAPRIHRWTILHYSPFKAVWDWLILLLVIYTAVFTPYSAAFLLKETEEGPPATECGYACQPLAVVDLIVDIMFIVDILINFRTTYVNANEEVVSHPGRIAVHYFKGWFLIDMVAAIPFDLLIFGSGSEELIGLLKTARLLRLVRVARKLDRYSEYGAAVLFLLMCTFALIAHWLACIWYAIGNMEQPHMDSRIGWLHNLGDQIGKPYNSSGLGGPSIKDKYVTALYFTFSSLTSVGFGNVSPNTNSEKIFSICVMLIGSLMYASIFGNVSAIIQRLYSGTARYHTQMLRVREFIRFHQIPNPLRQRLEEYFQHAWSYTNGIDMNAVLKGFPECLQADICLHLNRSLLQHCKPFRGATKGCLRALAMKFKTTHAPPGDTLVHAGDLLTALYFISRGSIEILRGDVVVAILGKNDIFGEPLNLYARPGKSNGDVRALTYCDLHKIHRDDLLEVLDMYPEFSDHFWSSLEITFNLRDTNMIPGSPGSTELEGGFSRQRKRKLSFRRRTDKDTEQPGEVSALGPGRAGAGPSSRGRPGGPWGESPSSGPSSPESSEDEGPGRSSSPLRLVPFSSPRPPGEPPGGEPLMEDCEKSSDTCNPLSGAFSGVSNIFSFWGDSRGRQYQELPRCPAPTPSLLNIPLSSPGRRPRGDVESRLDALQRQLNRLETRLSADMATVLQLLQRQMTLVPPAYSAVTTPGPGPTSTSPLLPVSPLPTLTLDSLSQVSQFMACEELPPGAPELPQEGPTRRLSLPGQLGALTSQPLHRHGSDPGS

Nav1.5 = Nav1.5 (Homo sapiens, UniProt Q14524); assay: Inhibition of Nav1.5 (unknown origin) at 10 uM
Sequence of Nav1.5 (Q14524 whole entry): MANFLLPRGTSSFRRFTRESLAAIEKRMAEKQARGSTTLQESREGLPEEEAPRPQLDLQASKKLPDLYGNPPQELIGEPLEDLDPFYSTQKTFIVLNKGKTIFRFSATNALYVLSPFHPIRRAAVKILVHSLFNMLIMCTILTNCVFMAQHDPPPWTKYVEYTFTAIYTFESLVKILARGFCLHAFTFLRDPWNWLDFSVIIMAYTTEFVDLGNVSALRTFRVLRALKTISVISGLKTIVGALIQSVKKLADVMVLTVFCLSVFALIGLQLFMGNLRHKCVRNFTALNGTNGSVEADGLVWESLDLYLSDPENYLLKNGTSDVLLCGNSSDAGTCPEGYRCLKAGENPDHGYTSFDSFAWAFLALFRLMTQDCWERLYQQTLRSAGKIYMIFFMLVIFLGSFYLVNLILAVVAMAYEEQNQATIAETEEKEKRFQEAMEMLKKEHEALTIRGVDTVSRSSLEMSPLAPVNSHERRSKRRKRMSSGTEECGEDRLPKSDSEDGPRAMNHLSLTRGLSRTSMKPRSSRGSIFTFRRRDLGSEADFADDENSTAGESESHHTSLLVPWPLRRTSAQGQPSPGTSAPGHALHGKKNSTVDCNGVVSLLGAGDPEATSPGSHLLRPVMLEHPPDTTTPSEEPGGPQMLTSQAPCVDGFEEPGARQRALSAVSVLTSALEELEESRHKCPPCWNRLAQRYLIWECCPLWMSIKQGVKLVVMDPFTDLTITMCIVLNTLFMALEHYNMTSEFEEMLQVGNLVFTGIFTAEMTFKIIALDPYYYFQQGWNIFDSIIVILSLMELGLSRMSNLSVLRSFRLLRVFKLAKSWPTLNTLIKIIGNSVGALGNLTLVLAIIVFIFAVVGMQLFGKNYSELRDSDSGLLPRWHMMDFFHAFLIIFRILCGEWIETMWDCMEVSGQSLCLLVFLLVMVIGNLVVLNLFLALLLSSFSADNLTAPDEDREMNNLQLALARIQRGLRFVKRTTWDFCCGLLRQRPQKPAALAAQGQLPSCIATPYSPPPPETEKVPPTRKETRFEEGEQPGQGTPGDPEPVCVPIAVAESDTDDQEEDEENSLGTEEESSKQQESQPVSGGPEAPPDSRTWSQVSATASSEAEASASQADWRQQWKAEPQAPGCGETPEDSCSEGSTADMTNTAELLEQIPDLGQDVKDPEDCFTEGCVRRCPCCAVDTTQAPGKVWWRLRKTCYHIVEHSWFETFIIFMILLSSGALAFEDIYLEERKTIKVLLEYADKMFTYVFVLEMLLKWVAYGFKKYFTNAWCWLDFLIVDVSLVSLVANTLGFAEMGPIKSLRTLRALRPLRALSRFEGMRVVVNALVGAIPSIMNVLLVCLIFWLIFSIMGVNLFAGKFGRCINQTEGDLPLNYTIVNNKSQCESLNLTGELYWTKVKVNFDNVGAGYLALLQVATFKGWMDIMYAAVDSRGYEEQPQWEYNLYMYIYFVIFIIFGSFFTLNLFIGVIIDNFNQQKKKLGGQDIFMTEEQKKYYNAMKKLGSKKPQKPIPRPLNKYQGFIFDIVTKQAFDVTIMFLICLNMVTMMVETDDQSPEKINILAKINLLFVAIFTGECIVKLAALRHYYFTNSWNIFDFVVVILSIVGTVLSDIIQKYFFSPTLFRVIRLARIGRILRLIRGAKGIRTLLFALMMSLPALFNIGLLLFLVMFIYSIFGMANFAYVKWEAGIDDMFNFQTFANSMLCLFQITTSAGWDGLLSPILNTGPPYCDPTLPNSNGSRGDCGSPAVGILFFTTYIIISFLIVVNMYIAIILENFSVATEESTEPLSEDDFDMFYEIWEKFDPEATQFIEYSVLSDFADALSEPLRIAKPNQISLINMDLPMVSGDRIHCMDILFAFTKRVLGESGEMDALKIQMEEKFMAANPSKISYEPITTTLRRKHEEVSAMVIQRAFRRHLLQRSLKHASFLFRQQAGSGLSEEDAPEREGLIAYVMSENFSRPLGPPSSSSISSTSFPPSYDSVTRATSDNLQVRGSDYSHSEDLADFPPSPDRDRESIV

Cav1.2 = Cav1.2 (Homo sapiens, UniProt Q13936); assay: Inhibition of Cav1.2 (unknown origin) at 10 uM
[22] = Inhibition of guinea pig TRPA1; parameters: species or system Cavia porcellus
Cavia porcellus = assay: Antiinflammatory activity against ovalbumin-induced po dosed Hartley guinea pig asthma model assessed as reduction in BAL fluid infiltrate in the airway treated 2 hrs before and 8 hrs after 28 days of ovalbumin challenge measured after 24 hrs; assay type: functional, organism-based
Cytochrome P450 3A4 = Cytochrome P450 3A4 (Homo sapiens, UniProt P08684); assay: Inhibition of CYP3A4 (unknown origin); assay type: ADME
Cytochrome P450 2D6 = Cytochrome P450 2D6 (Homo sapiens, UniProt P10635); assay: Inhibition of CYP2D6 (unknown origin); assay type: ADME
Sequence of Cytochrome P450 2D6 (P10635 whole entry): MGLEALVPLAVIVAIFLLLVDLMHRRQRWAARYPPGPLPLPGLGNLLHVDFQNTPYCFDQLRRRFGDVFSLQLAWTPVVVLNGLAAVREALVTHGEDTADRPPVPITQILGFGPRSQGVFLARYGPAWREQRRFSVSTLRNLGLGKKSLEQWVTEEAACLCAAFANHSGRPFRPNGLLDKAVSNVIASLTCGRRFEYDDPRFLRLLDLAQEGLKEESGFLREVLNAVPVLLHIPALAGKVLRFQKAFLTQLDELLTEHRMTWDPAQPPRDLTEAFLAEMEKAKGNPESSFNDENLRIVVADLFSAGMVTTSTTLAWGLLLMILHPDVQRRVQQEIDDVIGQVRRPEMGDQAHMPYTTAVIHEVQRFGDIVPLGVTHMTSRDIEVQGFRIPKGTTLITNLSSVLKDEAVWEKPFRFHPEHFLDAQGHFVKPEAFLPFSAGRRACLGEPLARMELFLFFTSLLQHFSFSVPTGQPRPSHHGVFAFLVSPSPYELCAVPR

Cn1cnc2ncn(Cc3nc([C@@H]4CO[C@@H](c5ccc(Cl)cc5)C4)no3)c(=O)c21
CLhep predicted [1]: 5 mL/min/kg | CLhep predicted [2]: 14 mL/min/kg | IC50 [3]: 7.4 nM | IC50 [4]: 0.9 nM | logD [5]: 1.8 | fraction unbound [6]: 0.171 | fraction unbound [7]: 0.246 | half-life [8]: 1.6 h | EC50 (Rattus norvegicus): 53 nM | Vduss [9]: 8.54 L/kg | Vd [10]: 2.1 L/kg | clearance [11]: 17 mL/min/kg | Papp A→B [12]: 16 ×10⁻⁶ cm/s | solubility kinetic [13]: 43 µM (≈ 17.8 µg/mL) | bioavailability [14]: 90% | CLhep predicted [15]: 29 mL/min/kg | inhibition [16]: 30% | inhibition [17]: 53% | inhibition [18]: 80% | inhibition [19]: 100% | inhibition [20]: inactive | inhibition [21]: inactive | inhibition at 10 µM (hERG (KCNH2)): < 15% | inhibition at 10 µM (Nav1.5): < 15% | inhibition at 10 µM (Cav1.2): < 15% | IC50 [22]: 7.1 nM | Activity (Cavia porcellus): Dose-dependent effect | IC50 (Cytochrome P450 3A4): > 10000 nM | IC50 (Cytochrome P450 2D6): > 10000 nM

Source: ChEMBL document CHEMBL5055619, “Tetrahydrofuran-Based Transient Receptor Potential Ankyrin 1 (TRPA1) Antagonists: Ligand-Based Discovery, Activity in a Rodent Asthma Model, and Mechanism-of-Action via Cryogenic Electron Microscopy” (J Med Chem, 2021)
